Experimental data reported in US8663912B2, “Fluorogenic substrate for ADAMTS13” (Washington University, priority 2011, dated 2014).
* marks the point of attachment. X1 = CC1(C)C(/C=C/C2=C(Cl)C(=C/C=C3/N(CCCCCC(=O)*)c4ccc5cc(S(=O)(=O)O)ccc5c4C3(C)C)/CCC2)=[N+](CCCS(=O)(=O)[O-])c2ccc(N(CCCS(=O)(=O)O)CCCS(=O)(=O)O)cc21; X2 = CC(C)(C)c1cc(/C=C/C=C2\N(CCCS(=O)(=O)O)c3ccc(S(=O)(=O)O)cc3C2(C)CCCC(=O)CCN2C(=O)CC(*)C2=O)c2ccc(N(CCCS(=O)(=O)[O-])CCCS(=O)(=O)O)cc2[o+]1

How the values were obtained:
ADAMTS13 [1] = target: T1, ADAMTS13 (Homo sapiens, UniProt Q76LX8); assay: ADAMTS13 activity of plasma samples with FRETS-rVWF71 substrate; assay type: biochemical; parameters: from tissue; host or cells: human plasma or serum (pooled normal plasma, healthy donors, TTP patients); conditions: samples from patients with idiopathic TTP
T1 sequence (Q76LX8 75-1427): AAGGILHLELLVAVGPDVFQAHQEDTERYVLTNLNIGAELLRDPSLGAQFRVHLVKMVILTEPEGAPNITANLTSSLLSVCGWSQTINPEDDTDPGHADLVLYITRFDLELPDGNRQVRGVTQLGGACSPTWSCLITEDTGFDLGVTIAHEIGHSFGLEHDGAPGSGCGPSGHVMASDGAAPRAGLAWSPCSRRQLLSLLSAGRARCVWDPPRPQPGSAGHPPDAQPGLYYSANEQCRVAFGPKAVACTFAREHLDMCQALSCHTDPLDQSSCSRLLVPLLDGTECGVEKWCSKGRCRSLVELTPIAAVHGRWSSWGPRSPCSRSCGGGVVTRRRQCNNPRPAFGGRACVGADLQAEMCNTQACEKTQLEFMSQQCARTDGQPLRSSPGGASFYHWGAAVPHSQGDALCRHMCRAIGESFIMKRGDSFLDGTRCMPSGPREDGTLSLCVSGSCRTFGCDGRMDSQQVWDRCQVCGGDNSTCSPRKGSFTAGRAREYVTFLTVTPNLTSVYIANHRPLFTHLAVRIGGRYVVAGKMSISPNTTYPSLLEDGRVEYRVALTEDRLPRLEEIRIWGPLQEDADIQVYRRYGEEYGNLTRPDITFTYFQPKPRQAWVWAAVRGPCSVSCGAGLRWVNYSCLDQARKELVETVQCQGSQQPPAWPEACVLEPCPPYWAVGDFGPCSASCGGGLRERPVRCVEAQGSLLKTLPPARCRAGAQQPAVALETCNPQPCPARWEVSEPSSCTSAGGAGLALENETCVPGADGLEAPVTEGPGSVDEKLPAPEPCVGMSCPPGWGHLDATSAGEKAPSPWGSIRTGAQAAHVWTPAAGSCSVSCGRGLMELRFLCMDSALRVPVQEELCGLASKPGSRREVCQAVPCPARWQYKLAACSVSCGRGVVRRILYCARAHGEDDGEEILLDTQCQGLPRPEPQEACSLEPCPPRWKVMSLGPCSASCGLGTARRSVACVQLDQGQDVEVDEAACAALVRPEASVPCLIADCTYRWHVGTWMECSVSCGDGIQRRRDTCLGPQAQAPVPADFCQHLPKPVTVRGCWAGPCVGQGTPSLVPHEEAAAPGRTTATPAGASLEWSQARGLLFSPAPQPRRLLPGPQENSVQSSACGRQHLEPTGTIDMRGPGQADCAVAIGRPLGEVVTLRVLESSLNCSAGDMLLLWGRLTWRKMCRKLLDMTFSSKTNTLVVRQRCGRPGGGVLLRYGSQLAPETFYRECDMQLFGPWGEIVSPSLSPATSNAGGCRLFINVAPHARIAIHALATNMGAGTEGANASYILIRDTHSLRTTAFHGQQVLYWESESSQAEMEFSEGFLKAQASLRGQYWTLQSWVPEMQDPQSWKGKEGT
Protocol: Assays were performed at 30° C. Samples (100 μL) of plasma or serum, diluted as necessary in assay buffer, were pipetted in duplicate in 96 well white microplates (Optiplate-96, PerkinElmer, Waltham, Mass.). Reaction was initiated by addition of 100 μL substrate in assay buffer. Cleavage of FRETS-rVWF71 was detected as an increase in fluorescence compared to control reactions without added enzyme at 2 min intervals using a Victor^2V Multilabel Counter (PerkinElmer, Waltham, Mass.) or Synergy H1 Hybrid Multi-Mode Microplate Reader (Biotek, Winooski, Vt.) equipped with 635±10 nm excitation and 660±10 nm emission filters. Initial velocities were determined by fitting progress curves to the polynomial ΔF=A+Bt+Ct^2, where ΔF is the change in fluorescence, t is time, A is the y-intercept, B is the initial velocity (slope), and the term Ct^2 accounts for any decline in velocity due to substrate consumption or photobleaching.
In these experiments, frozen Li^+-heparin plasma samples were obtained from 100 healthy controls (Biological Specialty Corp., Colmar, Pa.) deidentified except for demographic information on gender, age, and ethnicity. Pooled normal Li^+-heparin plasma (PNP) for assay standardization was prepared from at least 35 donors. […] activity of randomly selected controls samples was determined by the FRETS-VWF73 method. […]

ADAMTS13 [2] = target: T1, ADAMTS13; assay: ADAMTS13 inhibitor titer assay with FRETS-rVWF71 substrate; assay type: biochemical; parameters: from tissue; host or cells: human plasma or serum (pooled normal plasma, healthy donors, TTP patients); conditions: TTP patients with detectable inhibitor; printed 1.4-fold to >5-fold
Protocol: Plasma samples with ADAMTS13 protease activity <10% were tested for the presence of an ADAMTS13 inhibitor. Plasma samples were serially diluted two-fold with assay buffer (50 mM HEPES, pH 7.4, 150 mM NaCl, 10 mM CaCl2, and 0.05% Tween-20) to yield 8 dilutions. In duplicate, PNP (50 μL) was mixed with an equal volume (50 μL) of undiluted test plasma and each serially diluted sample. Control conditions included PNP mixed with an equal volume of cleavage buffer. The microplate containing the samples was sealed with adhesive film (Sealplate, Excel Scientific, Victorville, Calif.) and incubated at 37° C. for 1 h. Reaction was initiated by addition of 100 μL of assay buffer containing 2 μM FRETS-rVWF71. Fluorescence emission was monitored and initial reaction rates were determined.
The inhibitor titer was determined by fitting the initial reaction rates to a four parameter logistic model or sigmoidal dose response equation by nonlinear regression (Prism): Rate(D)=[…]/(1+10^((log T−log D)*H)) […]
A fixed amount of ADAMTS13 in PNP (100 μL) was preincubated with serially diluted plasma samples and assayed for ADAMTS13 activity. Reaction rates were analyzed according to a model for competitive sigmoidal dose-response inhibition to obtain the dilution of plasma at which ADAMTS13 activity is decreased by 50%, and the inverse of the dilution is the inhibitor titer (FIG. 7C). […]

## X1-GQAPNLVYMVTGC(X2)PASDEIRRLPGDIQVVPIGVGPNANVQELERIGWPNAPILIQDFETLPREAPDLVLQR [FRETS-rVWF71]
ADAMTS13 [1]
  sensitivity of ADAMTS13 activity assay relative to FRETS-VWF73: 20 fold
ADAMTS13 [2]
  inhibitor titers higher than with FRETS-VWF73: ≥ 1.4 fold
